Source: article PMC7689640, “Analysis of the efficacy of HIV protease inhibitors against SARS-CoV-2′s main protease” (Virology Journal, 2020)
pIC50: −log10 of the molar value. Read-outs that look alike come from different tables or passages of the source.

Legend:
SARS-CoV-2 M^pro = SARS-CoV-2 M^pro (Severe acute respiratory syndrome coronavirus 2, UniProt P0DTD1); assay: Inhibition profiling in cell culture (dark-to-bright GFP reporter substrate, flow cytometry); format: cell-based; conditions: for Inhibition of SARS-CoV-2 M^pro in cell culture: 200 micromolar concentration of the inhibitors, HEK-293 T cells
SARS-CoV-2 [1] = conditions: Vero E6 cells; cited from earlier work
MERS-CoV = conditions: Calu-3 cells; cited from earlier work
HEK-293 T cells = assay: Cell viability assay (MTT); conditions: for Cytotoxicity: HEK-293 T cells; for Tolerability by HEK-293 T cells: high concentrations
SARS-CoV-2 [2] = test system: SARS-CoV-2; set-up: method as in PMID 32147628; conditions: in vitro; cited from earlier work
[3] = patient's serum under antiretroviral treatment; cited from earlier work
[4] = test system: SARS-associated coronavirus; conditions: combination of lopinavir/ritonavir and ribavirin; cited from earlier work
[5] = HEK-293 T cells co-transfected with CoV-2 M^pro and PR-Sub plasmids, 24 h, GFP fluorescence, triplicate experiments, read-out: IC50

With `CCC[C@@]1(CCc2ccccc2)CC(O)=C([C@H](CC)c2cccc(NS(=O)(=O)c3ccc(C(F)(F)F)cn3)c2)C(=O)O1` [Tipranavir, tipranavir] the “Inhibition of SARS-CoV-2 M^pro in cell culture” value (SARS-CoV-2 M^pro) was “failed to inhibit” and the pIC50 (SARS-CoV-2 M^pro; [5]) was < 3.70.
In the case of `CC(C)c1nc(CN(C)C(=O)N[C@H](C(=O)N[C@@H](Cc2ccccc2)C[C@H](O)[C@H](Cc2ccccc2)NC(=O)OCc2cncs2)C(C)C)cs1` [Ritonavir, ritonavir], the “Inhibition of viral replication” value (SARS-CoV-2 [1]) is given as “no inhibition of viral replication”, the pIC50 (MERS-CoV) is given as 4.60 and the Cytotoxicity (HEK-293 T cells; concentrations above 50 µM) is given as > 50%.
For `Cc1cccc(C)c1OCC(=O)N[C@@H](Cc1ccccc1)[C@@H](O)C[C@H](Cc1ccccc1)NC(=O)[C@H](C(C)C)N1CCCNC1=O` [Lopinavir, lopinavir], the IC50 (SARS-CoV-2 M^pro) is given as “Indeterminable”, the pIC50 (MERS-CoV) is given as 4.94 and the Cytotoxicity (HEK-293 T cells; concentrations above 50 µM) is given as 90%.
In the case of `CC(C)CN(C[C@@H](O)[C@H](Cc1ccccc1)NC(=O)O[C@H]1CO[C@H]2OCC[C@H]21)S(=O)(=O)c1ccc(N)cc1` [Darunavir, darunavir], the pIC50 (SARS-CoV-2 M^pro; read-out: IC50) is listed as 4.44, the “Concentration inhibiting SARS-CoV-2 replication” value (SARS-CoV-2 [2]) is listed as 300 µM and the “Tolerability by HEK-293 T cells” value (HEK-293 T cells) is listed as “well tolerated”.
In the case of `COC(=O)N[C@H](C(=O)N[C@@H](Cc1ccccc1)[C@@H](O)CN(Cc1ccc(-c2ccccn2)cc1)NC(=O)[C@@H](NC(=O)OC)C(C)(C)C)C(C)(C)C` [Atazanavir, atazanavir], the pIC50 (SARS-CoV-2 M^pro; [5]) is given as 4.22, the “Minimum concentration (Cmin)” value [3] is given as < 1000 nM and the Cytotoxicity (HEK-293 T cells; concentration of 200 µM) is given as “cytotoxicity was not observed”. For the same compound, the “Tolerability by HEK-293 T cells” value (HEK-293 T cells) was “well tolerated”.
In the case of `CC(C)(C)NC(=O)[C@@H]1C[C@@H]2CCCC[C@@H]2CN1C[C@@H](O)[C@H](Cc1ccccc1)NC(=O)[C@H](CC(N)=O)NC(=O)c1ccc2ccccc2n1` [Saquinavir, saquinavir], the pIC50 (SARS-CoV-2 M^pro) is listed as 4.50, the “Minimum concentration (Cmin)” value [3] is listed as 3800 nM and the Cytotoxicity (HEK-293 T cells; concentrations above 50 µM) is listed as > 50%.
For `Cc1c(O)cccc1C(=O)N[C@@H](CSc1ccccc1)[C@H](O)CN1C[C@H]2CCCC[C@H]2C[C@H]1C(=O)NC(C)(C)C` [Nelfinavir, nelfinavir], the pIC50 (SARS-CoV-2 M^pro) was < 3.70 and the “Inhibition of SARS-CoV-2 M^pro in cell culture” value (SARS-CoV-2 M^pro) was “failed to inhibit”.
For `NC(=O)c1ncn([C@@H]2O[C@H](CO)[C@@H](O)[C@H]2O)n1` [ribavirin], the “Concentration effective against SARS-associated coronavirus” value [4] is given as 50 µg/mL.
